# Reference: patent US5792457A, “Antibody recognizing endothelial cell ligand for leukocyte CR3” (priority 1995, dated 1998)
# “Also recorded” adds a separate entry of the source.
# Tests used:
# [1] = system: transendothelial migration of human neutrophils through HUVEC monolayers; assay: Transendothelial migration (TEM) of neutrophils; type: cell-based; conditions: for % Inhibition of TEM: peptides 0.01 mM, native FHA 1 μM, at least 3 experiments with 6 wells/peptide
# Excerpt: FIG. 26 is a graphical representation of the inhibition of transendothelial migration of neutrophils by FHA peptide Ca, native FHA and mAb IB4 in a concentration dependent fashion. FHA peptide Ca (.largecircle.); intact FHA (.quadrature.); and mAb IB4 (.tangle-solidup.). Values represent mean±standard deviation of at least 3 experiments with 6 wells/peptide.
# Transendothelial migration of neutrophils was studied based on a method described by Muller et al. (1992), J. Exp. Med. 176: 819-828. Briefly, human neutrophils suspended in ice-cold Hanks balanced salt solution (HBSS) containing Ca^++ and Mg^++ (Sigma) were fluoresceinated by adding 3.3 μl/ml 5-(and 6-)carboxyfluorescein diacetate, succinimidyl ester (CFSE, Molecular Probes Inc., Oreg.). After incubation for 30 mins. on ice, neutrophils were washed twice in cold HBSS with Ca^++ and Mg^++ and resuspended in cold Medium 199 (M199, Sigma) to a final concentration of 10^6 /ml. Human umbilical vein endothelial cells were subcultured at confluence into 96-well tissue culture plates (Becton Dickinson Labware, Lincoln Park, N.J.) that were coated with hydrated collagen gel (Vitrogen; Collagen Corporation, Palo Alto, Calif.) and fibronectin. Endothelial cells were stimulated with 10 ng/ml TNF-alpha for 4 hours and washed three times with warm M199. Neutrophils (10^6 /ml) were preincubated with 0.01 mM of peptides or with 1 μM of native FHA in M199 for 5 mins. on ice before they were added in 100 μl aliquots to the endothelial cells. For positive control, neutrophils were pre-incubated with 25 μg/ml anti-CD18 mAb IB4. For negative control, neutrophils were treated with 25 μg/ml mAb W6/32 against HLA class I antigen (Dako, Carpinteria, Calif.). The cells were incubated for 1 hour at 37° C., 5% CO2. To terminate transmigration, the supernatant fluid was aspirated and the wells were filled with warm 1 mM EGTA (Sigma) in HBSS without Ca and Mg. The plates were covered with plate sealers (Dynatech, Alexandria, Va.) and centrifuged in an inverted position at 250 g for 3 mins. at room temperature. To remove residual non-transmigrated neutrophils from the endothelial cells, monolayers were washed twice with 200 μl of warm Hanks solution without Ca and Mg. Fluorescence was quantitated using a fluorescence counter (Millipore Cytofluorm™ 2300). The percentage of transmigrated neutrophils was determined by comparing the amount of fluorescence of test wells with that measured in collagen- and fibronectin-coated wells without endothelial cells. […] Percent inhibition of transendothelial migration of neutrophils was calculated by comparing the number of transmigrated cells in wells containing neutrophils treated with peptide to neutrophils treated with M199 alone and arbitrarily set at 100% transendothelial migration (TEM).
# The procedures for determining the neutrophil adherence to cultured endothelial cells and the transendothelial migration of neutrophils were identical with those of Example 9. Control values were the same as those shown in Example 9.
# [2] = system: leukocyte migration into the CSF, pneumococcal meningitis; assay: Rabbit model for meningitis: leukocyte migration into CSF; type: in vivo, New Zealand white rabbits; conditions: for leukocyte migration into the CSF (in words): 0.1 μM (10^-1 μM) i.v.; for mean leukocyte density, cells/μl CSF: 1 ml of 1 μM peptide i.v.; for mean leukocyte density, cells/μl CSF / mean leukocyte concentration/μl CSF: 7 hours after challenge; for reduction of CSF leukocytosis: intravenous injection; for leukocyte migration into CSF (in words): 10^-3 μM
# Excerpt: FIG. 20A and B, is a graphical representation of the anti-inflammatory activity of FHA, and FHA- and factor X-derived peptides in experimental bacterial meningitis. FIG. 20 A: FHA .largecircle.; Control .quadrature.. FIG. 20B: FHA peptide Ia .largecircle.; FHA peptide II .box-solid.; Factor X peptide II .tangle-solidup.; scrambled FHA peptide II .circle-solid..
# FIG. 21 is a graphical representation of the effect of concentration of peptide on inhibition of leukocyte migration into the CSF. FHA peptide Ia .largecircle., FHA peptide II .box-solid.; Factor X peptide II .tangle-solidup.(n≥4 per group). Two animals received intravenous injections of 10^-1 μM, 2×10^-2 μM or 2×10^-3 μM FHA (.circle-solid.). Values are means±standarddeviations of leukocyte densities at 7 hours after bacterial challenge. The horizontal lines indicate the mean and standard deviation of CSF leukocyte density in 10 control animals which received phosphate buffered saline.
# FIG. 22 is a scattergram representation of the effect of variation of the FHA peptide II structure on efficacy of inhibition,of meningeal inflammation. Values are leukocyte densities at 7 hours for individual rabbits. The horizontal lines indicate the mean and standard deviation of CSF leukocyte density in 10 control animals which received phosphate buffered saline.
# FIG. 23 is a scattergram representation of the ability of acetyl/amide FHA peptide II to inhibit accumulation of leukocytes in the CSF. Two groups of 10 animals were challenged with pneumococci. One hour later, the animals received an intravenous injection of 10 nmoles of the acetyl/amide peptide (8.2 μg) or phosphate buffered saline. Leukocyte density in CSF was determined 6 hours after pneumococcal challenge.
# FIG. 28 is a graphical representation of the effect of FHA peptides on pneumococci induced leukocyte migration into the CSF during pneumococcal meningitis. Data represent mean±standard deviation of leukocyte concentration/μl CSF of at least 4 animals per group. Time is hours after pneumococcal challenge. FHA peptide Ca (.quadrature.); FHA peptide Cb (.largecircle.); FHA peptide Cd (.tangle-solidup.); Control (.diamond-solid.);
# FIG. 29 is a graphical representation of a comparison of anti-inflammatory activity of FHA and FHA peptides in experimental meningitis. FHA peptide Ca (.quadrature.); FHA peptide Cb (.largecircle.), ≥ four animals/group; FHA (.tangle-solidup.), two animals/group. Values are means ±standard deviations of leukocyte concentrations/μl CSF at 7 hours after bacterial challenge. The horizontal lines indicate the mean±standard deviation of leukocyte concentrations in 10 control animals which received phosphate buffered saline.
# The rabbit model was performed according to an established protocol. Specific pathogen free, New Zealand white rabbits (2 kg; Hare Marland, Nutley, N.J.) were anesthetized with valium (2.5 mg/kg, subcutaneously, Hoffman-LaRoche, Nutley, N.J.), ketamine (35 mg/kg, intra-muscularly, Aveco, Fort Dodge, Iowa) and xylazine (5 mg/kg, intramuscularly, Miles Laboratories, Shawnee, Kans.) and a helmet of dental acrylic was affixed to the calvarium. Twenty four hours later, the rabbits were anesthetized with ethyl carbamate (1.75 g/kg; Aldrich Chemical Co., Milwaukee, Wis.) and pentobarbital (15 mg/kg; Abbott Laboratories, Abbott Park, Ill.) and placed in a stereotaxic frame. A spinal needle was introduced into the cisterna magna and 300 μl of CSF was withdrawn. The animals were challenged intracisternally with 10^8 heat killed, unencapsulated pneumococcus strain R6 introduced in 200 μl of saline (time 0). One hour later, animals were treated with peptides dissolved in 1 ml of saline by intravenous injection into the right marginal ear vein. The concentration of FHA was 0.1 μM and that of the FHA Ia, Factor X II, and scrambled FHA II peptides was 10 μM. For the acetyl-FHA II, acetyl/amide-FHA II, dimer of FHA II and trimer of FHA II peptides, the concentration was 10^-3 μM. […]
substance,measurement,setting,value
AADPHQGVLAQGDIIMDAKG [FHA Cc],% Inhibition of TEM,[1],11 ± 11%
RGDPHQGVLAQGDIIMDAKG [FHA Ca],concentration required for inhibition of TEM similar to native FHA (82±1% at 1 μM),[1],10 µM
same,% Inhibition of TEM,[1],83 ± 8%
same,% Inhibition of TEM,[1]; listed as FHA peptide Ca,83±8%
same,leukocyte migration into the CSF (in words),[2],still significantly reduced leukocyte migration into the CSF
same,"mean leukocyte density, cells/μl CSF",[2],2137±1498 cells/μl CSF
Ac-ETKEVDG-NH2 [Acetyl/Amide-FHA II],leukocyte migration into the CSF,"[2]; 10 nmoles i.v., 6 hours post-pneumococcal challenge, n=10",3011±684 cells/μl
"LGYQAK (UniProt P12255 1979-1984, looked up, fragment) [FHA Ia]",% Inhibition of TEM,[1],23 ± 5%
same,reduction of CSF leukocytosis,[2],> 60%
same,mean leukocyte concentration/μl CSF,[2]; peptides 10 μM i.v.,1640±1210 /μl CSF
GYDTKQEDG [Factor X II],% Inhibition of TEM,[1],14 ± 9%
same,reduction of CSF leukocytosis,[2],> 60%
same,mean leukocyte concentration/μl CSF,[2]; peptides 10 μM i.v.,1622±521 /μl CSF
GTLLLRNDALTENGTVTISA [FHA Cd],% Inhibition of TEM,[1],6 ± 6%
same,leukocyte recruitment into the CSF (in words),[2]; 1 μM peptide,no effect on the leukocyte recruitment into the CSF
"DEETVK [scrambled FHA II, reference compound]",% Inhibition of TEM,[1],4 ± 5%
same,CSF leukocytosis (in words),[2]; peptides 10 μM,ineffective
same,mean leukocyte concentration/μl CSF,[2]; peptides 10 μM i.v.,6431±1380 /μl CSF
RADPHQGVLAQGDIIMDAKG [FHA Cb],% Inhibition of TEM,[1],8 ± 9%
same,leukocyte migration into the CSF (in words),[2],ineffective at this dose
same,"mean leukocyte density, cells/μl CSF",[2],2788±1022 cells/μl CSF
"native FHA: Filamentous hemagglutinin, 220kD surface associated protein of Bordetella pertussis (List Biologicals)",% Inhibition of TEM,[1],82±1%
same,% Inhibition of TEM,[1]; listed as FHA,82 ± 1%
same,% Inhibition of TEM,[1]; listed as Intact FHA,82±1%
same,leukocyte migration into the CSF (in words),[2]; listed as FHA,statistically significantly different from control at p<0.05; also recorded: more potent anti-inflammatory activity than the corresponding Factor X peptide II
same,leukocyte migration into CSF (in words),[2],ineffective
same,mean leukocyte concentration/μl CSF,"[2]; FHA 25 μg, 0.1 μM i.v.",2096±450 /μl CSF
same,reduction of CSF leukocytosis,[2],> 60%
ETKEVDG [FHA II],% Inhibition of TEM,[1],21 ± 10%
same,leukocyte migration into the CSF (in words),[2]; listed as FHA peptide II,statistically significantly different from control at p<0.02; also recorded: more potent anti-inflammatory activity than the corresponding Factor X peptide II
same,leukocyte migration into CSF (in words),[2],ineffective
same,reduction of CSF leukocytosis,[2],> 60%
same,mean leukocyte concentration/μl CSF,[2]; peptides 10 μM i.v.,2645 ±1412 /μl CSF
